# Values joined by “and” are separate entries in the source; they are usually repeats but may differ in a detail not shown here. Equal values may be shown once. “Also recorded” adds a separate entry of the source.
# Columns and labels:
# [1] = test system: human leukocyte elastase (HLE); assay: Inhibition of HLE, chromogenic substrate N-Suc-Ala-Ala-Val-NA; type: biochemical; conditions: for Percent inhibition of HLE: substrate N-Suc-Ala-Ala-Val-NA
# Description: (§1) The inhibition of HLE by partially N-desulfated heparin of Example I was measured by incubating a constant amount of HLE (100 pmol) with increasing amounts of partially N-desulfated heparin (10-50 pmol, I:E ratio 0.1-0.5) for 30 minutes at 25° C. in 500 microliters of Hepes buffer (0.125 M, 0.125% Triton-X-100, pH 7.5) diluted to the final volume of 900 microliters. The remaining enzyme activity was measured by adding 100 microliters of 3 mM N-Suc-Ala-Ala-Val-NA (Sigma Chemicals, St. Louis, Mo., made in dimethylsulfoxide [DMSO]) and reading the absorbance of the proteolytically released chromogen 4-Nitroaniline at 405 nm. The percentage of inhibition was calculated based on enzyme activity without inhibitor.
# as §1, with “2-O-desulfated” for “partially N-desulfated”, “III” for “I”, “([…])” for “(10-50 pmol, I:E ratio 0.1-0.5)”
# [2] = test system: human leukocyte elastase (HLE); assay: HLE degradation of 3H-elastin; type: biochemical; conditions: substrate 3H-Elastin
# Description: Also, bovine ligament elastin was prepared according to B. C. Starcher, Anal. Biochem. (1976) 74:441-447. The elastin was assessed for purity by amino acid analysis. Its degradation was assayed using elastin radiolabeled with ^3 H-NaBH4, following the methods described in P. J. Stone, et al., Methods Enzymol. (1982) 82:588-605. The tritiated powdered elastin was homogenized and washed in phosphate buffered saline (PBS), pH 7.4 just before use to remove unincorporated radioactivity. A constant amount of human leukocyte elastase (HLE) (67 pmol) was pre-incubated with increasing amounts of 2-O-desulfated heparin (6.7-134 pmol) at 37° C. for 30 minutes in a final volume of 1.0 ml Hepes buffer (0.125 M, 0.125% Triton-X-100, pH 7.5). An aliquot of 900 microliters of each reaction mixture was incubated with 5 mg ^3 H-elastin and 100 microliters of 0.9% saline at 37° C. Solubilized peptides were separated from the elastin suspension by filtration through medium-porosity filter paper. The rate of degradation was determined by quantifying the solubilized ^3 H peptides.
# cathepsin G = assay: Inhibition of cathepsin G, substrate Suc-Ala-Ala-Pro-Phe-pNA; type: biochemical; conditions: for Inhibition of cathepsin G, in words: I:E ratios of greater than 0.4
# Description: as §1, with “2-O-desulfated” for “partially N-desulfated”, “III” for “I”, “([…])” for “(10-50 pmol, I:E ratio 0.1-0.5)”
# The inhibition of cathepsin G by 2-O-desulfated heparin of Example III was measured as described above, except that the substrate was 3 mM Suc-Ala-Ala-Pro-Phe-pNA (Sigma Chemical, in DMSO).
# human test serum = assay: Activated partial thromboplastin time in vitro; type: biochemical; conditions: for Time to Clot Formation: control 35-45
# Description: The anti-coagulant potential of the desulfated heparin from Example III was studied by determining its effect on the activated partial thromboplastin time (APPT) in vitro. The test was performed in the usual fashion used to monitor the anti-coagulant effect of heparin clinically in patients. The test used 0.1 and 1.0 mg/ml heparin or heparin, 2-O-desulfated according to Example III, added to human test serum in vitro.
# factor Xa [3] = assay: Anti-factor Xa activity, plasma treated with Russell viper venom; type: biochemical; conditions: for Anti-factor Xa Activity (test time): control plasma 35 sec.
# Description: The 2-O-desulfated heparin from Example III was also studied to determine whether plasma dilutions of 0.1 mg/ml heparin or heparin, desulfated according to Example III, inhibited factor Xa, prolonging test time in an assay for Xa activity utilizing plasma treated with Russell viper venom.
# [4] = test system: human leukocyte elastase (HLE)-mediated lung injury; assay: HLE-mediated lung injury in hamsters, bronchoalveolar lavage; type: in vivo, golden Syrian hamsters; conditions: hamster; for PMN in bronchoalveolar lavage fluid / Protein in bronchoalveolar lavage fluid / Total Hemoglobin in bronchoalveolar lavage fluid: intratracheal 500 μg followed by HLE 100 μg, 24 hours
# Description: The ability of desulfated heparin to prevent human leukocyte elastase (HLE)-mediated lung injury was assessed in female golden Syrian hamsters (Harlan Industries, Indianapolis, Ind.) weighing 90 to 110 g. Phenobarbital-anesthetized hamsters were injected intratracheally with 0.25 ml sterile 0.9% saline (NS), 0.25 ml NS containing HLE (100 μg), or 0.25 ml NS containing 500 μg of heparin (Sigma) or 2-O-desulfated heparin according to Example III followed by 0.25 ml NS with HLE. Animals were killed by exsanguination 24 hours after treatment. The throat was opened and lungs dissected en bloc. The trachea was cannulated with polyethylene tubing and lavaged with five sequential aliquots of 3 ml NS. Lavage fluid was centrifuged at 200 Xg for 10 minutes. The resulting cell pellet was re-suspended in 1 ml Hank's balanced salt solution (HBSS) for performing cell count and differentials. The supernatant was assayed for protein and hemoglobin, as indices of acute injury.
# rats = conditions: rat, in vivo, 10 mg/kg
# blood coagulation [5] = conditions: Rej et al. and Jaseja et al.; cited from earlier work
# [6] = test system: human polymorphonuclear leucocyte elastase (HLE); conditions: cited from earlier work
# blood coagulation [7] = assay: USP anticoagulant activity
# Description: (§2) Heparin modifications HM0500393 through HM0505293 were made from the same lot of porcine intestinal mucosal sodium heparin having 173.0 units/mg USP anticoagulant activity (USP method) and approximately 150 units/mg anti-Xa activity (by amidolytic assay using commercially available chromogenic peptide substrate). Preparation of modifications began with dissolution of 50 to 100 gm heparin to 5-10% concentration in deionized water, followed by addition of sodium borohydride.
# factor Xa [8] = assay: Anti-Xa activity, amidolytic assay with chromogenic peptide substrate; type: biochemical
# Description: as §2
# [9] = Conc. 0.1 mg/ml in human test serum
# [10] = Conc. 1.0 mg/ml in human test serum
# [11] = plasma dilution 1:2 of 0.1 mg/ml
# [12] = plasma dilution 1:10 of 0.1 mg/ml
# [13] = plasma dilution 1:100 of 0.1 mg/ml
# [14] = plasma dilution 1:1000 of 0.1 mg/ml
Substance,"HLE inhibitory activity, in words [1]",Percent inhibition of HLE ([1]; I:E ratio 0.2:1),Percent inhibition of HLE ([1]; I:E ratio 0.3:1),Percent inhibition of HLE ([1]; I:E ratio 0.4:1),Percent inhibition of HLE ([1]; I:E ratio 0.5:1),Percent inhibition of HLE ([1]; I:E ratio 0.6:1),Percent inhibition of HLE ([2]; I:E ratio 0.1:1),Percent inhibition of HLE ([2]; I:E ratio 0.2:1),Percent inhibition of HLE ([2]; I:E ratio 0.4:1),Percent inhibition of HLE ([2]; I:E ratio 0.5:1),Percent inhibition of HLE ([2]; I:E ratio 1.0:1),Percent inhibition of HLE ([2]; I:E ratio 2.0:1),Percent inhibition of Cathepsin G (cathepsin G; I:E ratio 0.1:1),Percent inhibition of Cathepsin G (cathepsin G; I:E ratio 0.2:1),Percent inhibition of Cathepsin G (cathepsin G; I:E ratio 0.4:1),Percent inhibition of Cathepsin G (cathepsin G; I:E ratio 0.8:1),Percent inhibition of Cathepsin G (cathepsin G; I:E ratio 1.0:1),Percent inhibition of Cathepsin G (cathepsin G; I:E ratio 2.0:1),"Inhibition of cathepsin G, in words (cathepsin G)",Time to Clot Formation (human test serum; [9]),other results
2-O-desulfated heparin [ODH],significant inhibition of human leukocyte elastase,74%,84%,85%,84%,100%,73%,77%,72%,85%,85%,84%,14%,54%,56%,69%,69%,67%,significant inhibition of cathepsin G,38 s,"Percent inhibition of HLE ([1]; I:E ratio 0.1:1): 20%; Ability to prolong the APTT, in words (human test serum): little ability to prolong the APTT; Time to Clot Formation (human test serum; [10]): 42 s; Antifactor Xa activity, in words (factor Xa [3]): little antifactor XA activity; Anti-factor Xa Activity (test time) (factor Xa [3]; [11]): 42 s; Anti-factor Xa Activity (test time) (factor Xa [3]; [12]): 33 s; Anti-factor Xa Activity (test time) (factor Xa [3]; [13]): 32 s; Anti-factor Xa Activity (test time) (factor Xa [3]; [14]): 32 s; Inhibition of elastase induced injury in vivo, in words [4]: potent inhibitors of elastase induced injury in vivo; PMN in bronchoalveolar lavage fluid [4]: 9.83 ×10^6 Cells; Protein in bronchoalveolar lavage fluid [4]: 65.80 mg/mL; Total Hemoglobin in bronchoalveolar lavage fluid [4]: 1.5 mg; Alveolar hemorrhage (rats): produced no alveolar hemorrhage; Anticoagulant activity, in words (blood coagulation [5]): minimal anticoagulant activity"
dextran [non-sulfated dextran],–,–,–,–,–,–,–,–,–,–,–,–,–,–,–,–,–,–,–,–,"Inhibition of elastase, in words [6]: is not"
dextran sulfate,–,–,–,–,–,–,–,–,–,–,–,–,–,–,–,–,–,–,–,–,"Inhibition of elastase, in words [6]: potent inhibitor of elastase"
heparin,significant inhibition of human leukocyte elastase; also recorded: significantly inhibited human leukocyte elastase (HLE) at I:E ratios of greater than 0.2,72% and 51.000%,83% and 91.000%,88%,93% and 97.000%,99%,72%,95%,92%,94%,97%,97%,31%,49%,67%,78%,76%,76%,significant inhibition of cathepsin G,80 s,"Percent inhibition of HLE ([1]; I:E ratio 0.2:1, listed as H): 81% and 79%; Percent inhibition of HLE ([1]; I:E ratio 0.3:1, listed as H): 88%; Percent inhibition of HLE ([1]; I:E ratio 0.4:1, listed as H): 87% and 90%; Percent inhibition of HLE ([1]; I:E ratio 0.5:1, listed as H): 87% and 91%; Percent inhibition of HLE ([1]; I:E ratio 1:1): 98%; Percent inhibition of HLE ([1]; I:E ratio 1.5:1): 98%; Percent inhibition of HLE ([1]; I:E ratio 2:1): 98% and 99.000%; Time to Clot Formation (human test serum; [10]): > 150 s; Anti-factor Xa Activity (test time) (factor Xa [3]; [11]): > 480 s; Anti-factor Xa Activity (test time) (factor Xa [3]; [12]): > 420 s; Anti-factor Xa Activity (test time) (factor Xa [3]; [13]): 42 s; Anti-factor Xa Activity (test time) (factor Xa [3]; [14]): 32 s; Inhibition of elastase induced injury in vivo, in words [4]: potent inhibitors of elastase induced injury in vivo; PMN in bronchoalveolar lavage fluid [4]: 10.83 ×10^6 Cells; Protein in bronchoalveolar lavage fluid [4]: 41.06 mg/mL; Total Hemoglobin in bronchoalveolar lavage fluid [4]: 0.867 mg; USP Activity (anti-coagulant activity) (blood coagulation [7]; Table VII): 173.0 u/mg; USP anticoagulant activity (blood coagulation [7]; listed as porcine intestinal mucosal sodium heparin): 173.0 units/mg; USP anticoagulant activity (blood coagulation [7]; listed as starting heparin): 170 units/mg; anti-Xa activity (factor Xa [8]): approximately 150 units/mg"
